What was measured:
[1] = test system: A549 xenografts in zebrafish embryos; test: Zebrafish A549 tumor xenograft efficacy; assay type: in vivo; conditions: 0.5 μM, 48 to 72 hpf
Experimental: The anticancer activity of the complex 1 was tested using a qualitative high throughput zebrafish tumor xenograft model (IACUC # I13009).[74] First, zebrafish embryos were divided into 7 groups at an average of 65 embryos per group. Each group was treated with vehicle (DMSO) or complex 1 at variable concentrations to identify the maximum tolerable dose (MTD) (Fig. S29 ^†). […] Therefore, efficacy studies, using zebrafish bearing human tumor xenografts were carried out with complex 1 being administered at the 0.5 μM concentration level.[75]–[77] Briefly, live human lung cancer cells (A549) were labeled with CM-DiI (red) and only live cells were transplanted via injection into the perivitelline space of 30 zebrafish embryos 24 hours post fertilization (hpf).[74],[78],[79] Tumor inoculated zebrafish embryos were allowed to grow for one day till 48 hpf. This allows for establishment of the cancer cells in the host zebrafish embryos. At 48 hpf, the xenograft bearing zebrafish embryos were split into 2 groups (15 embryos per group) and treated with vehicle (DMSO) or complex 1 at 0.5 μM for one additional day (72 hpf), and cancer cell death was observed using acridine orange staining (green). Live zebrafish-A549 tumor xenografts treated with DMSO display features consistent with the presence of tumor cells (red, white arrows in Fig. 10A). […]

A2780 ovarian = test: Cell proliferation (MTT assay) in A2780 ovarian cells; assay type: cell-based, human; conditions: wt-p53, platinum sensitive; Table 3
Experimental: (§1) Further anti-proliferation studies were carried out with complex 1 and its naphthoquinone component 4[H][Cl] using the following cell lines: A2780 ovarian (a wt-p53 cell line sensitive to platinum treatment), 2780CP ovarian (isogenic to A2780 but expressing multi-drug resistance (MDR)), and PC-3 prostate (p53 null) (Table 3).
(§2) Biological preparations and assays
(§3) Experimental compound preparation. Stock solutions of complexes 1–3, 4[H][Cl], auranofin (Tocris Bioscience 4600), and doxorubicin (Tocris Bioscience 2252) were dissolved in DMSO (2.5–10 mM, depending on the compound and its solubility), aliquoted, and stored at -80 °C prior to use.
(§4) Biological Materials and Cell Lines. Cell lines were obtained from the ATCC (A549 and PC-3) and Prof.
(§5) Zahid Siddik at M.D. Anderson Cancer Center (A2780 and A2780CP). Cell culture plastic ware (i.e. T-75 flasks, treated 6-well plates, treated 96-well plates, and cell scrapers) were obtained from Fisher Scientific. […]
(§6) were made. […] The medium was then removed, the resulting formazan was dissolved in […] DMSO and the respective absorbances were measured at 560–650 nm using a microplate reader (Molecular Devices, Sunnyvale, CA). Absorbance values were corrected for background and then normalized to wells containing untreated cells to allow for plate-to-plate comparisons. […]

2780CP ovarian = test: Cell proliferation (MTT assay) in 2780CP ovarian cells; assay type: cell-based, human; conditions: isogenic to A2780, multi-drug resistance; Table 3
Experimental: as §1, §2, §3, §4, §5, §6

[2] = Differential pulse voltammetry, quinone reduction potentials; assay type: physicochemical; conditions: DMSO, 0.1 M [N(nBu)4][PF6], 0.1 mM analyte, vs. SCE
Experimental: A series of electrochemical analyses, including cyclic voltammetry (CV) and differential pulse voltammetry (DPV), were carried out with [NnBu4][PF6] in anhydrous dimethyl sulfoxide (DMSO) in order to evaluate electronic properties of compounds 1–3 and 4[H][Cl]. […] These electrochemical features were attributed to the reduction of the quinone moiety to first produce the semiquinone radical (NQ^–) and then produce the quinone dianion (NQ^2–) forms of compounds 1–3 and 4[H][Cl].[70],[71] The quinone reduction potential in 4[H][Cl] occurs at –0.38 V, the lowest of all the molecules studied, indicative of a positively charged imidazolium ring. The quinone couple at –0.42 V observed for compound 1 is ascribed to the presence of bis(NHC). The same wave in compound 3 appears at a more negative potential (–0.47 V), presumably due to greater trans effects excreted by quinone annulated NHC ligand than the metal-bound chloride. This analysis agrees well with the differences in the observed δ^13C (Au–Ccarbene) resonances for compounds 1 and 3. […]
mM) as referenced to SCE (internal standard Fc0/+, adjusted to 0.435 V vs. SCE).

A549 cancer cells = test: Confocal microscopy of ROS localisation; assay type: cell-based, human; conditions: A549, 1.25 μM, 4 h
Experimental: To further elucidate the subcellular loci of ROS accentuation, confocal microscopy was employed to fluorescently image A549 cancer cells treated with vehicle (DMSO) and 1.25 μM complex 1 (Fig. 7d). All cells were selectively stained for visualization of ROS accentuation (green, CM-H2DCFDA), mitochondria (red, Mitotracker Red), and nuclei (blue, Hoechst).
Serum Protein Binding Studies.
aliquots were stored at -80°C.
in an Edvotek microcentrifuge. […] Samples
Detection of ROS by Flow Cytometry.
cells were treated with vehicle only.
g) at 5 °C. […] The pellet was
Control samples of unstained cells,
overnight. […] Post incubation, the media was
After incubation, the dye-
Cells were then imaged fluorescently
Lipoate Inhibition Assays.
well culture plates. […] The next day, appropriate
were added to each well. […] Afterwards, the liquid was then

[3] = test system: DNA duplex (5'CCGCAGCCA3'/5'TGGCTGCGG3'); test: Thermal denaturation of a DNA duplex; assay type: binding; conditions: 1 molar equivalent, 5 μM complex and duplex

For `Cc1cc(C)c(-n2c3c(n(-c4c(C)cc(C)cc4C)[c]2=[Au-]=[c]2n(-c4c(C)cc(C)cc4C)c4c(n2-c2c(C)cc(C)cc2C)C(=O)c2ccccc2C4=O)C(=O)c2ccccc2C3=O)c(C)c1.[Cl][Ag-][Cl]` [Complex 1, [bis(1,3-dimesityl-4,5-naphthoquino-imidazol-2-ylidene)-gold(I)] [silver(I)dichloride]], the “Tumor cell death in xenografts (acridine orange staining)” value [1] was “evidence of apoptosis for the majority of tumor cells”, the IC50 (A2780 ovarian) was 26 ± 7 nM and the IC50 (2780CP ovarian) was 54 ± 6 nM. For the same molecule, the “E 1/2 a (V) DPV” value ([2]; first reduction, semiquinone radical (NQ˙–)) was “–0.42 V”, the “E 1/2 b (V) DPV” value ([2]; second reduction, quinone dianion (NQ2–)) was “–1.31 V” and the “Subcellular locus of ROS accentuation” value (A549 cancer cells) was “ROS accentuation is arising from mitochondria”. For the same molecule, the “Thermal stabilization of DNA” value [3] was “no thermal stabilization”.

Reference: publication PMC5859730, “Dual targeting of the cancer antioxidant network with 1,4-naphthoquinone fused Gold(I) N-heterocyclic carbene complexes” (Chemical Science, 2017)
